Legend:
[1] = system: nucleoside uptake (3H-Thymidine); assay: Rel.Uptake: nucleoside uptake, single concentration assay, cell line as indicated in each table; format: cell-based; details: 293T, response relative to DMSO
Method in brief: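 3H-thymidine uptake measured in the indicated cell lines (e.g. 293T) grown in complete media. IC50 scored relative to DMSO control as Low >600 nM, Medium 300-600 nM, High <300 nM; Rel.Uptake single-concentration response vs DMSO scored Low >0.6, Medium 0.3-0.6, High <0.3.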

293T = assay: Nucleoside uptake assay (uptake) using 3H-Thymidine, 293T; format: cell-based; details: 293T cells
Protocol: Nucleoside Uptake Assay (uptake). Nuceloside uptake assays were performed with using 3H-Thymidine as described in Guo et al. (2018) Nat. Chem. 11:254-63. Specific cell lines are indicated in each assay and cultured in complete growth media. Activity is scored according to the IC50 values relative to DMSO control. “Low” indicates an IC50 greater than 600 nM, “Medium” indicates an IC50 between 300 nM and 600 nM “High” indicates an IC50 less than 300 nM. “Rel.Uptake” refers to uptake activity characterization relative to a single concentration assay. “Low” indicates a response greater than 0.6 times the activity relative to DMSO, “Medium” indicates a response between 0.6 and 0.3 times the activity relative to DMSO, “High” indicates a response less than 0.3 times the activity relative to DMSO.

[2] = IC50 class relative to DMSO control

Row | Compound | Rel. Uptake, 293T ([1]; nucleoside uptake) | Uptake, 293T (293T; [2]) | also measured
1 | COc1ccc(CC[C@H]2OC(=O)[C@@H]3CCCCN3C(=O)C(=O)C(C)(C)COC(=O)C=CCCN(C)C(=O)[C@H](CC(C)C)N(C)C(=O)[C@H]3CCCN3C(=O)[C@H](Cc3ccc(CC(=O)NCc4ccccc4)cc3)NC(=O)[C@H](c3ccccc3)NC(=O)CCC(=O)Nc3cccc2c3)cc1OC [Compound 1590] | High (“High” indicates a response less than 0.3 times the activity relative to DMSO) | – | IC50 (293T; Table 15): > 600 nM
2 | COc1ccc(CC[C@H]2OC(=O)[C@@H]3CCCCN3C(=O)C(=O)C(C)(C)COC(=O)C=CCCN(C)C(=O)[C@H](CC(C)C)N(C)C(=O)[C@H]3CCCN3C(=O)[C@H](Cc3ccc(C(=O)NCCO)cc3)NC(=O)[C@H](c3ccccc3)NC(=O)CCC(=O)Nc3cccc2c3)cc1OC [Compound 1558] | high | – | Uptake, 293T (293T; Table 15): high
3 | COc1ccc(CC[C@H]2OC(=O)[C@@H]3CCCCN3C(=O)C(=O)C(C)(C)COC(=O)C=CCCN(C)C(=O)[C@H](CC(C)C)N(C)C(=O)[C@H]3CCCN3C(=O)[C@H](Cc3ccc(OCc4ccccc4)cc3)NC(=O)C(c3ccccc3)NC(=O)CCC(=O)Nc3cccc2c3)cc1OC (stereo partly shown) [Compound 1082] | – | low | Rel. Uptake, 293T [1]: low
4 | COc1ccc(CC[C@H]2OC(=O)[C@@H]3CCCCN3C(=O)C(=O)C(C)(C)COC(=O)C=CCCN(C)C(=O)[C@H](CC(C)C)N(C)C(=O)[C@H]3CCCN3C(=O)[C@H](Cc3ccc(C(=O)Nc4ccccc4)cc3)NC(=O)[C@H](c3ccccc3)NC(=O)CCC(=O)Nc3cccc2c3)cc1OC [Compound 1559] | medium | – | Uptake, 293T (293T; Table 15): medium
5 | COc1ccc(CC[C@H]2OC(=O)[C@@H]3CCCCN3C(=O)C(=O)C(C)(C)COC(=O)C=CCCN(C)NC(c3ccccc3)C(=O)N(C)[C@@H](Cc3ccccc3)C(=O)N3CCC[C@@H]3C(=O)N(C)[C@@H](CC(C)C)C(=O)C(=O)CCOc3cccc2c3)cc1OC (stereo partly shown) [Compound 1556] | low | low | –
6 | COc1ccc(CC[C@H]2OC(=O)[C@@H]3CCCCN3C(=O)C(=O)C(C)(C)COC(=O)C=CCCN(C)C(=O)[C@H](CC(C)C)N(C)C(=O)[C@H]3CCCN3C(=O)[C@H](Cc3cccc(NC(C)=O)c3)NC(=O)[C@H](c3ccccc3)NC(=O)CCC(=O)Nc3cccc2c3)cc1OC [Compound 1588] | High (“High” indicates a response less than 0.3 times the activity relative to DMSO) | – | IC50 (293T; Table 14): < 300 nM
7 | COc1ccc(CC[C@H]2NC(=O)[C@@H]3CCCCN3C(=O)C(=O)C(C)(C)COC(=O)C=CCCN(C)C(=O)[C@H](CC(C)C)N(C)C(=O)[C@H]3CCCN3C(=O)[C@H](Cc3ccccc3)N(C)C(=O)C(c3ccccc3)NC(=O)CCC(=O)Nc3cccc2c3)cc1OC (stereo partly shown) [Compound 1557] | high | high | –
8 | COc1ccc(CC[C@H]2OC(=O)[C@@H]3CCCCN3C(=O)C(=O)C(C)(C)COC(=O)C=CCCN(C)C(=O)[C@H](CC(C)C)N(C)C(=O)[C@H]3CCCN3C(=O)[C@H](Cc3ccc(CNC(=O)c4ccccc4)cc3)NC(=O)[C@H](c3ccccc3)NC(=O)CCC(=O)Nc3cccc2c3)cc1OC [Compound 1585] | High (“High” indicates a response less than 0.3 times the activity relative to DMSO) | – | IC50 (293T; Table 14): < 300 nM
